Laboratory results from US7547710B2, “Fused heterocyclic compounds as peptidase inhibitors” (Takeda Pharmaceutical Company Limited, priority 2002, dated 2009).

Test system: not given
Experiment: not given
Details: not given

| melting point [°C] | Structure (SMILES) |
| --- | --- |
| 152 to 154 | CC(C)(C)Cc1nc2ccc(OCC(N)=O)cc2c(-c2ccccc2)c1CN [Example 40, 2-{[3-(aminomethyl)-2-(2,2-dimethylpropyl)-4-phenylquinolin-6-yl]oxy}acetamide] |
| 129 to 130 | CC(C)Cc1nc2ccc(Br)cc2c(-c2ccccc2)c1CN [Example 2, (6-bromo-2-isobutyl-4-phenylquinolin-3-yl)methylamine] |
| 138 to 139 | COC(=O)c1ccc2nc(CC(C)C)c(CN)c(-c3ccccc3F)c2c1 [Example 29, Methyl 3-(aminomethyl)-4-(2-fluorophenyl)-2-isobutylquinoline-6-carboxylate] |
| 119 to 120 | Cc1ccc(-c2c(CN)c(CC(C)C)nc3ccc(OCc4ccccc4)cc23)cc1 [Example 30, [6-(benzyloxy)-2-isobutyl-4-(4-methylphenyl)quinolin-3-yl]methylamine] |
| 156 to 157 | CC(C)Cc1nc2ccc(OCC(N)=O)cc2c(-c2cccs2)c1CN [Example 33, 2-{[3-(aminomethyl)-2-isobutyl-4-thien-2-ylquinolin-6-yl]oxy}acetamide] |
| 106 to 109 | CC(C)Cc1nc2ccc(OCC(N)=O)cc2c(-c2cccc(F)c2)c1CN [Example 38, 2-{[3-(aminomethyl)-4-(3-fluorophenyl)-2-isobutylquinolin-6-yl]oxy}acetamide] |
| 128 to 130 | CC(C)Cc1nc2ccc(C#N)cc2c(-c2ccccc2)c1CN [Example 3, 3-(aminomethyl)-2-isobutyl-4-phenylquinoline-6-carbonitrile] |
| 114 to 116 | CC(C)Cc1nc2ccc(Cl)cc2c(-c2ccccc2)c1CN [Example 1, (6-chloro-2-isobutyl-4-phenylquinolin-3-yl)methylamine] |
| 73 to 76 | COc1ccc2nc(CC(C)C)c(CN)c(-c3ccccc3)c2c1 [Example 25, (2-isobutyl-6-methoxy-4-phenylquinolin-3-yl)methylamine] |
| 159 to 160 | NCc1c(CC2CCCC2)nc2ccc(OCC(N)=O)cc2c1-c1ccccc1 [Example 42, 2-{[3-(aminomethyl)-2-(cyclopentylmethyl)-4-phenylquinolin-6-yl]oxy}acetamide] |

Target: T1, dipeptidyl peptidase IV in rat plasma (Rattus norvegicus, UniProt P14740)
T1 construct: from tissue; host or cells: SD rat blood plasma
T1 sequence (P14740 37-767 limits assumed): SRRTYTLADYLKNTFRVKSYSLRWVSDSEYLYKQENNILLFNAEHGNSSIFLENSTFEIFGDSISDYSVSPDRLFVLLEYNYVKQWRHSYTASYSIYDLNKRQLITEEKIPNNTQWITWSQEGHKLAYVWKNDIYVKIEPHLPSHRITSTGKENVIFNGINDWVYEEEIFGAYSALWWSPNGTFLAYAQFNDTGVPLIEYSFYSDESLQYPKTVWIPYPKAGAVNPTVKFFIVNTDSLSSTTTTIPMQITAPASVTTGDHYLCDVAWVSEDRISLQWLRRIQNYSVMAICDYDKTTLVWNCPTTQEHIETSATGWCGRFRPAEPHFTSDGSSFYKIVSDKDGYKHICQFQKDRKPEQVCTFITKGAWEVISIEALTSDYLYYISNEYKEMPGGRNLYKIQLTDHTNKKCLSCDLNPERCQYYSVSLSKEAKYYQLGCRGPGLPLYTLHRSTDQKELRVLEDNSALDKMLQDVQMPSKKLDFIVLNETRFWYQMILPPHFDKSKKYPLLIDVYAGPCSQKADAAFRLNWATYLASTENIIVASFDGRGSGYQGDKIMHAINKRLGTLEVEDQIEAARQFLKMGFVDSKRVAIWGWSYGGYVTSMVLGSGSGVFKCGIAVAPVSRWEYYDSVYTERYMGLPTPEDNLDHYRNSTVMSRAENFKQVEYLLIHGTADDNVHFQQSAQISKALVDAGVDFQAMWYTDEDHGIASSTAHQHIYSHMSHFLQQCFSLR
Experiment: Determination of dipeptidyl peptidase IV inhibitory activity in rat plasma
Assay type: biochemical
Details: SD rat plasma, substrate Gly-Pro-p-NA, 30° C., absorbance 405 nm after 0 hr. and 1 hr.
Method: The reaction was carried out according to the method of Raymond et al. (Diabetes, vol. 47, pp. 1253-1258, 1998) using a 96 well flat-bottomed plate at 30° C. An N,N-dimethylformamide solution (1 μl) containing the test compound was added to a mixture of water (69 μl), 1 M Tris-hydrochloride buffer (10 μl, pH 7.5) and 1 mM aqueous Gly-Pro-p-NA solution (100 μl) to prepare a mixed solution. Plasma (20 μl) prepared from blood of SD rat by a conventional method was added to the above-mentioned mixed solution and the enzyme reaction was started at 30° C. The absorbance after 0 hr. and 1 hr. was measured using a microplate reader at a wavelength of 405 nm and an increase (ΔODs) was determined. At the same time, an increase (ΔODc) in absorbance of the reaction mixture without the test compound, and an increase (ΔODb) in absorbance of the reaction mixture without the test compound and the enzyme were determined and percent inhibition of dipeptidyl peptidase IV enzyme activity was calculated from the following formula: {1−[(ΔODs−ΔODb)/(ΔODc−ΔODb)]}×100
The dipeptidyl peptidase IV inhibitory activity of the test compound group is expressed in IC50 value (μM) and shown in Table 2.

| IC50 [nM] | Structure (SMILES) |
| --- | --- |
| 1600 | CC(C)Cc1nc2ccc(Cl)cc2c(-c2ccccc2)c1CN [Example 1, (6-chloro-2-isobutyl-4-phenylquinolin-3-yl)methylamine] |

Target: T2, Caco-2-derived dipeptidyl peptidase IV (Homo sapiens, UniProt P27487)
T2 construct: A dipeptidyl peptidase IV crude enzyme solution was prepared from cultured Caco-2 (ATCC HTB-37) cells; endogenous in cells; host or cells: Caco-2 (ATCC HTB-37); Triton X-100 extract, Sephadex G-200 fractions
T2 sequence (P27487 whole entry): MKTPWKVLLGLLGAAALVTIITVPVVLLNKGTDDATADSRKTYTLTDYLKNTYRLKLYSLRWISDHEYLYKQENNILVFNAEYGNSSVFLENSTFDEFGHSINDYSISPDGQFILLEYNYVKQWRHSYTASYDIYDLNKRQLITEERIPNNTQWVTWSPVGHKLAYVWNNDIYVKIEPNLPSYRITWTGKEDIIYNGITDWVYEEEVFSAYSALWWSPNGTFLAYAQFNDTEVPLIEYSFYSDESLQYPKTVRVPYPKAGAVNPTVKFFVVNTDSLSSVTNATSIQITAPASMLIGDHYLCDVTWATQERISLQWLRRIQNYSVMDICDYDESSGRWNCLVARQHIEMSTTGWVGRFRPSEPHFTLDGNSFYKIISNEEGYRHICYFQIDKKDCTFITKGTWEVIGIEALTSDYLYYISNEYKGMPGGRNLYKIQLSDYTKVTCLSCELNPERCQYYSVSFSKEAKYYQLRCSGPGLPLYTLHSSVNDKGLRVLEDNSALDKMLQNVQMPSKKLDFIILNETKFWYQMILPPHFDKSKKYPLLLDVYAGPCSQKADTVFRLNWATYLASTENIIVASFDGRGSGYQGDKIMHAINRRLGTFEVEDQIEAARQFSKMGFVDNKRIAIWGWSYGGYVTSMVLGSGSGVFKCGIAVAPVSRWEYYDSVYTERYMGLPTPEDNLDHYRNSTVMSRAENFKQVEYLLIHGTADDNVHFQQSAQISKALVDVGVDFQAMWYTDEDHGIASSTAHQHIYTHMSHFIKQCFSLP
Experiment: Determination of Caco-2-derived dipeptidyl peptidase IV inhibitory activity
Assay type: biochemical
Details: Caco-2 crude enzyme solution, substrate Gly-Pro-p-NA, 37° C., absorbance 405 nm after 0 hr. and 3 hrs.
Method: The enzyme activity of dipeptidyl peptidase IV present in human colonic adenocarcinoma-derived cell line Caco-2 cell membrane has been already reported by Yong S. Chung et al. (Cancer Research, vol. 45, pp. 2976-2982, 1985).
A dipeptidyl peptidase IV crude enzyme solution was prepared from cultured Caco-2 (ATCC HTB-37) cells. The Caco-2 cells were cultured in D-MEM medium (manufactured by Nissui Pharmaceutical Co., Ltd.) containing 10% FBS (fetal bovine serum (manufactured by GIBCO)). […]
An N,N-dimethylformamide solution (5 μl) containing the test compound was added to a mixture of water (25 μl), 1M Tris-hydrochloride buffer (10 μl, pH 7.5) and 1 mM aqueous glycylprolyl-p-nitroanilide (Gly-Pro-p-NA; manufactured by Backem AG) solution (50 μl) to prepare a mixed solution. […] The absorbance after 0 hr. and 3 hrs. was measured using a microplate reader (Multiskan Bichromatic; manufactured by Labsystems) at a wavelength of 405 nm and an increase (ΔODs) was determined. At the same time, an increase (ΔODc) in absorbance of the reaction mixture without the test compound, and an increase (ΔODb) in absorbance of the reaction mixture without the test compound and the enzyme were determined and percent inhibition of dipeptidyl peptidase IV enzyme activity was calculated from the following formula: {1−[(ΔODs−ΔODb)/(ΔODc−ΔODb)]}×100 […]

| IC50 [nM] | Structure (SMILES) |
| --- | --- |
| 710 | CC(C)Cc1nc2ccc(Cl)cc2c(-c2ccccc2)c1CN [Example 1, (6-chloro-2-isobutyl-4-phenylquinolin-3-yl)methylamine] |
